Data set [1] can be described thus: Comparative solubility of BMDBM in 1:1 mixture of C12-15 alkyl benzoate and a polymeric or solid UV-filter.
Text: Where necessary the mixture was centrifuged in order to obtain a clear supernatant.
Data set [2] in a line: Solubility of BMDBM and BEMT in cosmetic solvent with and without PG-UVB (saturation, HPLC of supernatant; storage test). The settings on record: 200 mg BEMT in 800 mg diethylhexyl adipate/PG-UVB1 1:1, 1 month at RT.

Consider `CCCCC(CC)COc1ccc(-c2nc(-c3ccc(OC)cc3)nc(-c3ccc(OCC(CC)CCCC)cc3O)n2)c(O)c1` (stereo not shown) [BEMT, bis-ethylhexyloxyphenol methoxyphenyl triazine], for which the “Δ solubility of BMDBM related to cosmetic solvent” value in data set [1] (C12-15 alkyl benzoate/UV-filter 1:1, label = UV-filter) is recorded as −4 wt.-%. The “Δ solubility of BMDBM” value in data set [1] (C12-15 alkyl benzoate/UV-filter 1:1 versus C12-15 alkyl benzoate, label = UV-filter) was −11 wt.-%. Also, in data set [1] (label = UV-filter in 1:1 mixture, 200 mg BMDBM in 1000 mg mixture, 1 month at RT, HPLC of supernatant), the “Solubility of BMDBM in C12-15 alkyl benzoate/UV-filter 1:1” value turned out to be 3 wt.-%. For the same compound, the re-crystallization on storage entry in data set [2] was “no re-crystallization occurred”.

The record behind these values is patent US20120288456A1, “NOVEL COMPOUND” (priority 2009, published 2012).
